In US11998550B2, “Trametinib prevents mesothelial-mesenchymal transition and ameliorates abdominal adhesion and pulmonary fibrosis formation” (Thomas Jefferson University, priority 2017, dated 2024):

Legend:
[1] = tested on: rat peritoneal mesothelial cells; conditions: previous finding, ref [10]; cited from earlier work
[2] = tested on: rat peritoneal mesothelial cells; assay: TGF-β induced mesothelial/mesenchymal transition (MMT), cell morphology; type: cell-based; conditions: trametinib alone, no TGF-β, five days
Experimental: Isolated mesothelial cells were incubated under control conditions without either TGF-β or trametinib, with TGF-β or trametinib alone, or with both TGF-β and trametinib for five days (FIGS. 1 and 2).
The experiments in this study were approved by the Institutional Animal Care and Use Committee at Thomas Jefferson University, and were performed in accordance with the National Institutes of Health guidelines for the care and handling of laboratory animals. RPMCs were isolated and cultured as described previously. Briefly, Sprague Dawley rats weighing 150 g-250 g, purchased from Jackson Laboratory, were injected intra-peritoneally with 30 ml of 0.25% trypsin/2.21 mM EDTA under Isoflurane anesthesia and were kept on the metal pad warmed to 37° C. for one hour; after which the abdominal fluid was collected and centrifuged at 300 g for 10 minutes. The isolated pelleted cells were re-suspended and cultured in DMEM/F12 medium supplemented with 10% (v/v) FBS at 37° C. in a humidified atmosphere of 5% CO2 in air. The RPMCs, from the fourth to seventh passages (split ratio 1:4), at 90% confluence were used for the experiments. The cells were treated either with 10 ng/ml of TGF-β1 (R&D systems) alone, or with TGF-β1 and the MEK1/2 inhibitor, Trametinib (2 or 5 nM).

[3] = tested on: phospho-MEK1/2, phospho-Erk1/2, FNEDA, αSMA, phospho-Smad2 (linker); assay: Western analysis of TGF-β1 treated rat peritoneal mesothelial cells; type: cell-based; conditions: Western blot, FIG. 2
Experimental: These insights led us to explore the potential mechanisms of action of trametinib using Western blotting analyses (FIG. 2). […] These increases in gene expression of phosphor-Erk 1/2, FNEDA, αSMA and p-SMAD2 (linker) were blocked by as low a concentration of trametinib as 2 nM (FIG. 2).
The experiments in this study were approved by the Institutional Animal Care and Use Committee at Thomas Jefferson University, and were performed in accordance with the National Institutes of Health guidelines for the care and handling of laboratory animals. RPMCs were isolated and cultured as described previously. […]
RPMCs were lysed in ice-cold modified RIPA buffer with protease inhibitor cocktail (50 mM/L Tris-HCl, 1% NP-40, 0.25% Na-deoxycholate, 150 mM/L NaCl, 1 mM/L EDTA, 1 mmol/L phenylmethyl sulfonyl fluoride, 1 mM/L sodium orthovanadate, 1 mM/L NaF, pH 7.4). Equivalent amounts of homogenate (50 μg/well), determined by Coomassie blue assay, were separated by sodium dodecyl sulfate polyacrylamide gel electrophoresis (SDS-PAGE), transferred to either nitrocellulose or PVDF membranes, and detected by SuperSignal West Femto or Pico chemiluminescence.

[4] = tested on: C57BL/6 mice; assay: Cecal abrasion model of intra-abdominal adhesion formation, drug by osmotic pump for eight days
From the text: Mice were allowed to acclimate in the animal facility for at least one week prior to surgery, given free access to standard chow and water and a 12-h light-dark cycle in standard acrylic cages with wood chip bedding. Animals were randomly assigned into either an experimental group (laparotomy and cecal abrasion) or a control group (laparotomy only).
Briefly, mice underwent induction and maintenance anesthesia with 1-3% isofluorane with supplemental oxygen. After adequate sedation was achieved, mice were weighed and 0.1 mg/kg subcutaneous Buprenex (Hospira, Inc., Lake Forest, IL) was administered to ensure analgesia. The ventral surface was clipped along the midline and the skin was sterilized with betadine. A 2 cm midline incision was made subxiphoid to avoid injuring the bladder and the cecum was identified and externalized. The anti-mesenteric side of the cecum was gently swiped 30 times with gauze then returned to the abdomen. The incision was closed with a double layer of sutures with 2-0 silk [13]. […] In the drug escalation study, laparotomy and cecal abrasion were carried out as above as well as sub-dermal placement of the osmotic pumps.
Groups of 5 animals were given 0.1, 1.0 or 3.0 mg/kg animal weight of drug/day via osmotic pumps (Alzet Osmotic Pump 1002, Cupertino, CA) for eight days prior to sacrifice. The volume delivered/day was 6 ul of drug. Control mice underwent induction with anesthesia and laparotomy only. In addition, 5 animals underwent laparotomy and placement of the osmotic pumps which were filled with “drug vehicle (DMSO)” alone i.e., no drug. After 8 days of drug treatment, mice were euthanized under isofluorane anesthesia followed by cervical dislocation. Adhesions were examined by two independent practitioners. […]
Intestinal tissue was placed in Tissue-Tek O.C.T. Compound (Sakura Finetek, Torrance, CA) and immediately frozen in liquid nitrogen. […] Slides were mounted with DAPI Fluoromount-G (Southern Biotech) and fluorescence images were taken with a Zeiss epi-fluorescence microscope. […]

[5] = Solubility in water; type: physicochemical

Compound | effect on rat peritoneal mesothelial/mesenchymal transition induced by TGF-β [1] | effect of drug alone on cell appearance / toxicity [2] | concentration blocking TGF-β induced increases of phospho-Erk1/2, FNEDA, αSMA and p-SMAD2 (linker) [3] [nM] | average decrease in weight ([4]; 1.0 mg dose, eight day period of drug delivery) [%] | average increase in weight ([4]; 3.0 mg dose, eight day period of drug delivery) [%] | wound closure and healing at laparotomy site ([4]; highest drug dose (3 mg/kg/day)) | solubility in water [5]
N#CC(=C(/N)Sc1ccccc1N)/C(C#N)=C(\N)Sc1ccccc1N [U0126] | blocked |  |  |  |  |  | 
CC(=O)Nc1cccc(-n2c(=O)n(C3CC3)c(=O)c3c(Nc4ccc(I)cc4F)n(C)c(=O)c(C)c32)c1 [trametinib] |  | no effect and no apparent toxic effects | ≤ 2 | 2.2 | 0.5 | no effect on wound closure and healing | minimally soluble in water
